From PubChem BioAssay AID2060907 (Molecular Pharmacology Branch, DTP, NCI, 2025)

Test system: 388556-164-R-J1-PDC complex spheroid viability
Test: Anticancer human tumor 388556-164-R-J1-PDC patient-derived colon adenocarcinoma cell line growth inhibition [RAS]
Conditions: for viability, T/C: stronger effect = lower value
In short: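 Agents were tested in combination matrices in half-log decrements from a top concentration at or near clinical Cmax (10 microM if undetermined). Targets were multi-cell spheroids of tumour lines plus HUVEC and MSC stromal cells.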

[1] = curve of first compound, second compound 0.000949 µM
[2] = curve of first compound, second compound 0.003 µM
[3] = curve of first compound, second compound 0.00949 µM
[4] = curve of first compound, second compound 0.03 µM
[5] = curve of first compound, second compound 0.0949 µM
[6] = curve of first compound, second compound 0.3 µM
[7] = second compound 0.000949 µM, first compound 0.00316 µM
[8] = second compound 0.000949 µM, first compound 0.01 µM
[9] = second compound 0.000949 µM, first compound 0.0316 µM
[10] = second compound 0.000949 µM, first compound 0.1 µM
[11] = second compound 0.000949 µM, first compound 0.316 µM
[12] = second compound 0.000949 µM, first compound 1 µM
[13] = second compound 0.003 µM, first compound 0.00316 µM
[14] = second compound 0.003 µM, first compound 0.01 µM
[15] = second compound 0.003 µM, first compound 0.0316 µM
[16] = second compound 0.003 µM, first compound 0.1 µM
[17] = second compound 0.003 µM, first compound 0.316 µM
[18] = second compound 0.003 µM, first compound 1 µM
[19] = second compound 0.00949 µM, first compound 0.00316 µM
[20] = second compound 0.00949 µM, first compound 0.01 µM
[21] = second compound 0.00949 µM, first compound 0.0316 µM
[22] = second compound 0.00949 µM, first compound 0.1 µM
[23] = second compound 0.00949 µM, first compound 0.316 µM
[24] = second compound 0.00949 µM, first compound 1 µM
[25] = second compound 0.03 µM, first compound 0.00316 µM
[26] = second compound 0.03 µM, first compound 0.01 µM
[27] = second compound 0.03 µM, first compound 0.0316 µM
[28] = second compound 0.03 µM, first compound 0.1 µM
[29] = second compound 0.03 µM, first compound 0.316 µM
[30] = second compound 0.03 µM, first compound 1 µM
[31] = second compound 0.0949 µM, first compound 0.00316 µM
[32] = second compound 0.0949 µM, first compound 0.01 µM
[33] = second compound 0.0949 µM, first compound 0.0316 µM
[34] = second compound 0.0949 µM, first compound 0.1 µM
[35] = second compound 0.0949 µM, first compound 0.316 µM
[36] = second compound 0.0949 µM, first compound 1 µM
[37] = second compound 0.3 µM, first compound 0.00316 µM
[38] = second compound 0.3 µM, first compound 0.01 µM
[39] = second compound 0.3 µM, first compound 0.0316 µM
[40] = second compound 0.3 µM, first compound 0.1 µM
[41] = second compound 0.3 µM, first compound 0.316 µM
[42] = second compound 0.3 µM, first compound 1 µM
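Further: spheroids exposed to compound for 7 days before readout.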
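Wherever viability, T/C is given: 100% = DMSO vehicle control luminescence.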

In the case of `C=CC(=O)Nc1cc(Nc2nccc(-c3cn(C)c4ccccc34)n2)c(OC)cc1N(C)CCN(C)C` + CCn1c(-c2cccnc2C(C)OC)c2c3cc(ccc31)N1CCOC(CC(NC(=O)C(C(C)C)N(C)C(=O)C3(F)CCN(C(=O)C#CC(C)(C)N(C)C)CC3)C(=O)N3CCCC(N3)C(=O)OCC(C)(C)C2)C1, the IC50 [1] is reported as > 1 µM, the IC50 [2] is reported as > 1 µM and the IC50 [3] is reported as > 1 µM. For the same compound, the IC50 [4] was 0.974 µM, the IC50 [5] was 0.864 µM and the IC50 [6] was 0.849 µM. It also gave a viability, T/C [7] of 98.7%, a viability, T/C [8] of 93.3% and a viability, T/C [9] of 91.5%. For the same compound, the viability, T/C [10] was 88.5%, the viability, T/C [11] was 75.2% and the viability, T/C [12] was 53.4%. The viability, T/C [13] was 108%, the viability, T/C [14] was 108% and the viability, T/C [15] was 101%. The viability, T/C [16] was 83.6%, the viability, T/C [17] was 73.8% and the viability, T/C [18] was 53.4%. It also gave a viability, T/C [19] of 105%, a viability, T/C [20] of 107% and a viability, T/C [21] of 90.9%. For the same compound, the viability, T/C [22] was 80.2%, the viability, T/C [23] was 82.3% and the viability, T/C [24] was 54.1%. For the same compound, the viability, T/C [25] was 107%, the viability, T/C [26] was 96.2% and the viability, T/C [27] was 101%. For the same compound, the viability, T/C [28] was 88.1%, the viability, T/C [29] was 70.6% and the viability, T/C [30] was 49.5%. For the same compound, the viability, T/C [31] was 105%, the viability, T/C [32] was 108% and the viability, T/C [33] was 95.9%. The viability, T/C [34] was 93.9%, the viability, T/C [35] was 75% and the viability, T/C [36] was 46%. It also gave a viability, T/C [37] of 98.5%, a viability, T/C [38] of 89.3% and a viability, T/C [39] of 89.5%. For the same compound, the viability, T/C [40] was 81.5%, the viability, T/C [41] was 69.4% and the viability, T/C [42] was 46.3%.

`CCn1c(-c2cc(N3CCN(C)CC3)cnc2C(C)OC)c2c3cc(ccc31)-c1csc(n1)CC(NC(=O)C1CC1C)C(=O)N1CCCC(N1)C(=O)OCC(C)(C)C2` (centres undefined) was tested, and the viability, T/C (compound 0.000949 µM) was 99% [middle of 8 runs], the viability, T/C (compound 0.003 µM) was 92% [middle of 8 runs] and the viability, T/C (compound 0.00949 µM) was 78.5% [middle of 8 runs]. For the same compound, the viability, T/C (compound 0.03 µM) was 62.5% [middle of 8 runs], the viability, T/C (compound 0.0949 µM) was 45.2% [middle of 8 runs] and the viability, T/C (compound 0.3 µM) was 34.4% [middle of 8 runs]. For the same compound, the IC50 (compound alone, run of 08/26/2024) was 68.6 nM [middle of 8 runs].

`CC(C)n1nc(-c2ccc3oc(N)nc3c2)c2c(N)ncnc21` + CCn1c(-c2cccnc2C(C)OC)c2c3cc(ccc31)N1CCOC(CC(NC(=O)C(C(C)C)N(C)C(=O)C3(F)CCN(C(=O)C#CC(C)(C)N(C)C)CC3)C(=O)N3CCCC(N3)C(=O)OCC(C)(C)C2)C1 gave an IC50 [1] of 0.0568 µM, an IC50 [2] of 0.0577 µM and an IC50 [3] of 0.0484 µM. It also gave an IC50 [4] of 0.0615 µM, an IC50 [5] of 0.0574 µM and an IC50 [6] of 0.0498 µM. The viability, T/C (second compound 0.000949 µM, first compound 0.000316 µM) was 95.8%, the viability, T/C (second compound 0.000949 µM, first compound 0.001 µM) was 93.2% and the viability, T/C [7] was 88.7%. It also gave a viability, T/C [8] of 74.5%, a viability, T/C [9] of 63.6% and a viability, T/C [10] of 38%. It also gave a viability, T/C (second compound 0.003 µM, first compound 0.000316 µM) of 102%, a viability, T/C (second compound 0.003 µM, first compound 0.001 µM) of 90.6% and a viability, T/C [13] of 86.7%. For the same compound, the viability, T/C [14] was 77.6%, the viability, T/C [15] was 64.8% and the viability, T/C [16] was 37.7%. For the same compound, the viability, T/C (second compound 0.00949 µM, first compound 0.000316 µM) was 99.3%, the viability, T/C (second compound 0.00949 µM, first compound 0.001 µM) was 97.8% and the viability, T/C [19] was 96%. It also gave a viability, T/C [20] of 77.3%, a viability, T/C [21] of 60% and a viability, T/C [22] of 34.9%. It also gave a viability, T/C (second compound 0.03 µM, first compound 0.000316 µM) of 100%, a viability, T/C (second compound 0.03 µM, first compound 0.001 µM) of 87.6% and a viability, T/C [25] of 89.1%. The viability, T/C [26] was 82.5%, the viability, T/C [27] was 60.5% and the viability, T/C [28] was 41.3%. It also gave a viability, T/C (second compound 0.0949 µM, first compound 0.000316 µM) of 93%, a viability, T/C (second compound 0.0949 µM, first compound 0.001 µM) of 95.6% and a viability, T/C [31] of 80.2%. For the same compound, the viability, T/C [32] was 78.6%, the viability, T/C [33] was 63.8% and the viability, T/C [34] was 37.9%. The viability, T/C (second compound 0.3 µM, first compound 0.000316 µM) was 84.3%, the viability, T/C (second compound 0.3 µM, first compound 0.001 µM) was 89.4% and the viability, T/C [37] was 77.2%. For the same compound, the viability, T/C [38] was 72.5%, the viability, T/C [39] was 58.9% and the viability, T/C [40] was 36.8%.

In the case of `C[C@@H](NC(=O)c1ncnc(N)c1Cl)c1ncc(C(=O)Nc2cc(C(F)(F)F)c(Cl)cn2)s1` + CCn1c(-c2cc(N3CCN(C)CC3)cnc2C(C)OC)c2c3cc(ccc31)-c1csc(n1)CC(NC(=O)C1CC1C)C(=O)N1CCCC(N1)C(=O)OCC(C)(C)C2, the IC50 [1] is reported as > 10 µM, the IC50 [2] is reported as > 10 µM and the IC50 [3] is reported as > 10 µM. The IC50 [4] was > 10 µM, the IC50 [5] was > 10 µM and the IC50 [6] was < 0.0316 µM. For the same compound, the viability, T/C [9] was 96.3%, the viability, T/C [10] was 127% and the viability, T/C [11] was 105%. For the same compound, the viability, T/C [12] was 117%, the viability, T/C (second compound 0.000949 µM, first compound 3.16 µM) was 129% and the viability, T/C (second compound 0.000949 µM, first compound 10 µM) was 109%. For the same compound, the viability, T/C [15] was 114%, the viability, T/C [16] was 100% and the viability, T/C [17] was 86.5%. For the same compound, the viability, T/C [18] was 101%, the viability, T/C (second compound 0.003 µM, first compound 3.16 µM) was 111% and the viability, T/C (second compound 0.003 µM, first compound 10 µM) was 105%. The viability, T/C [21] was 85%, the viability, T/C [22] was 87.1% and the viability, T/C [23] was 89.5%. It also gave a viability, T/C [24] of 82.2%, a viability, T/C (second compound 0.00949 µM, first compound 3.16 µM) of 102% and a viability, T/C (second compound 0.00949 µM, first compound 10 µM) of 104%. For the same compound, the viability, T/C [27] was 75.7%, the viability, T/C [28] was 67.9% and the viability, T/C [29] was 91%. For the same compound, the viability, T/C [30] was 75.1%, the viability, T/C (second compound 0.03 µM, first compound 3.16 µM) was 78.8% and the viability, T/C (second compound 0.03 µM, first compound 10 µM) was 72.4%. It also gave a viability, T/C [33] of 50.2%, a viability, T/C [34] of 54.3% and a viability, T/C [35] of 54.3%. The viability, T/C [36] was 63.9%, the viability, T/C (second compound 0.0949 µM, first compound 3.16 µM) was 71% and the viability, T/C (second compound 0.0949 µM, first compound 10 µM) was 61.4%. For the same compound, the viability, T/C [39] was 34.3%, the viability, T/C [40] was 33.2% and the viability, T/C [41] was 38.6%. For the same compound, the viability, T/C [42] was 41.6%, the viability, T/C (second compound 0.3 µM, first compound 3.16 µM) was 38.5% and the viability, T/C (second compound 0.3 µM, first compound 10 µM) was 44.1%.

`CC(Nc1ccc2c(c1)OCCn1cc(N3C(=O)OCC3C(F)F)nc1-2)C(N)=O` (centres undefined) was tested, and the viability, T/C (compound 0.1 µM) was 87.7% [middle of 4 runs], the viability, T/C (compound 0.316 µM) was 88.6% [middle of 4 runs] and the viability, T/C (compound 1 µM) was 80.3% [middle of 4 runs]. For the same compound, the viability, T/C (compound 3.16 µM) was 74.9% [middle of 4 runs], the viability, T/C (compound 10 µM) was 67.4% [middle of 4 runs] and the IC50 (curve of compound) was > 10 µM.
